Data from patent publication US12024546B2, “Peptides and anti-cancer compositions including thereof” (GWANGJU INSTITUTE OF SCIENCE AND TECHNOLOGY, priority 2022, dated 2024).

Key:
FAK = target: T1, FAK (Homo sapiens, UniProt Q05397); assay: Immunoblot of FAK activation status (p-FAK); assay type: cell-based
T1 construct: endogenous in cells; host or cells: Human CRC cells
Protocol: (§1) FIGS. 16A-16G illustrate functional involvement of fibronectin/integrin/FAK axis in dysadherin-mediated protumor activity. (FIG. 16A) The number of viable cells was measured with an automated cell counter (Countess II, ThermoFisher Scientific, Waltham, MA, USA) at the indicated time points (n=3/group) in HCT116 cells overexpressing wildtype (full length) or mutant dysadherin. EV-transfected cells were used as controls. […] (FIG. 16B) To determine the effect of fibronectin and FAK signaling on cancer cell growth, dysadherin-OE or control cells were transfected with control siRNA (siCTRL) or siRNAs targeting fibronectin (siFN1). At 24 h after transfection, cells were detached, reseeded, and incubated for 12 h for cell attachment. […] The relative cell numbers were determined by MTT assays (n=3/group). […] The black dotted line indicates initial wound area, and the blue line indicates the cell boundaries determined after a 48-h incubation in serum-free media. […] After a 24-h incubation, the cells that invaded through to the bottom of the membrane were fixed, stained with crystal violet, and counted under a phase-contrast microscope (n=3/group). […]
Tissues or cells were homogenized in RIPA buffer for 20 min on ice. Protein concentrations were determined based on bicinchoninic acid (BCA) assay using the BCA Protein Assay kit (Thermo Fisher Scientific, Waltham, MA, USA). […]

[1] = system: dysadherin-OE HCT116 cells; assay: Cell growth by MTT assay, dysadherin-OE HCT116 cells; assay type: cell-based, human; details: VS-4718 3 μM, 36 h
Protocol: (§2) FIGS. 16A-16G illustrate functional involvement of fibronectin/integrin/FAK axis in dysadherin-mediated protumor activity. (FIG. 16A) The number of viable cells was measured with an automated cell counter (Countess II, ThermoFisher Scientific, Waltham, MA, USA) at the indicated time points (n=3/group) in HCT116 cells overexpressing wildtype (full length) or mutant dysadherin. EV-transfected cells were used as controls. […] (FIG. 16B) To determine the effect of fibronectin and FAK signaling on cancer cell growth, dysadherin-OE or control cells were transfected with control siRNA (siCTRL) or siRNAs targeting fibronectin (siFN1). At 24 h after transfection, cells were detached, reseeded, and incubated for 12 h for cell attachment. Then cells were incubated for 36 h with or without FAK inhibitor treatment (VS-4718, 3 μM). The relative cell numbers were determined by MTT assays (n=3/group). […] Cells were seeded on fibronectin-coated culture plates with or without VS-4718, at 1 or 3 μM. […] The black dotted line indicates initial wound area, and the blue line indicates the cell boundaries determined after a 48-h incubation in serum-free media. […] After a 24-h incubation, the cells that invaded through to the bottom of the membrane were fixed, stained with crystal violet, and counted under a phase-contrast microscope (n=3/group). […]

wild-type HCT116 cells = assay: Cell growth by MTT assay, wild-type HCT116 cells; assay type: cell-based, human; details: VS-4718 3 μM, 36 h
Protocol: as §2

HCT116 cells [2] = assay: Clonogenic assay (survival potential), HCT116 cells overexpressing dysadherin; assay type: cell-based, human; details: VS-4718 3 μmol/L for 24 h, then clonogenic assay
Protocol: as §1
A clonogenic assay was performed as cells were seeded in 12-well plates (200 cells/well) and cultured for 14 days. The numbers of colonies greater than 50 μm in size were counted after staining with crystal violet (n=3/group).

HCT116 cells [3] = assay: Wound healing assay (migration), HCT116 cells overexpressing dysadherin; assay type: cell-based, human; details: VS-4718 1 μM, 48-h incubation in serum-free media
Protocol: as §1
Cells were seeded in culture inserts (Ibidi, GmbH, Martinsried, Germany). […] The wound area at time zero or the endpoint was measured using Image-Pro Premier 9.2. The area of wound closure was calculated as a percentage of the initial wound area. […]

HCT116 cells [4] = assay: Boyden chamber assay (invasion), HCT116 cells overexpressing dysadherin; assay type: cell-based, human; details: FAK inhibitor 3 μmol/L, 24-h incubation, serum-free media
Protocol: as §1, with “(siFN1).” for “(siFN1). At 24 h after transfection, cells were detached, reseeded, and incubated for 12 h for cell attachment.”
The Transwell system (8 μm pore size, Corning) was employed for migration and invasion assays. […] After incubation for 24 h at 37° C., the cells that migrated or invaded the Matrigel through to the bottom of the insert membrane were fixed, stained with crystal violet, and counted under a phase-contrast microscope (Carl Zeiss, biological triplicates).

fibronectin [5] = assay: Pull-down assay of His-tagged synthesized peptides with purified fibronectin; assay type: binding; details: His-tagged peptide 20 μg, purified fibronectin 0.5 μg, Ni-NTA agarose beads, Coomassie staining
Excerpt: FIG. 13B illustrates pull-down assay using purified fibronectin and purified His-tagged synthesized peptides to determine the specific sequence with fibronectin-binding activity.
The coding sequences of wild-type or mutant forms of dysadherin were synthesized and cloned into pET151/DTOPO vector by Thermo Fisher Scientific. OE of His-tagged dysadherin was achieved using E. coli grown in Luria-Bertani (LB) broth medium, supplemented with ampicillin. Isopropyl β-D-1-thiogalactopyranoside (IPTG, 0.5 mM) was added into the LB broth medium to induce the expression of the protein of interest, and the mixture was incubated for 5 h at 37° C. The cells were then lysed using RIPA buffer and purified using a Ni-NTA column (R90101, Thermo Fisher Scientific). The concentrated purified protein was measured using the BCA Protein Assay kit (Thermo Fisher Scientific). […] Presence of His-tagged dysadherin and fibronectin proteins were determined by immunoblot analysis using anti-His rabbit monoclonal antibody (#12698, Cell Signaling Technology) and anti-fibronectin rabbit polyclonal antibody (ab2413, Abcam, Cambridge, MA, USA). […] The purity of each peptide was determined to be over 95% by LC-MS. […] The presence of His-tagged dysadherin, dysadherin peptides, and fibronectin was determined by staining with Coomassie Brilliant Blue.

SW480 cells = assay: Cell viability by MTT assay, SW480 cells; assay type: cell-based, human; details: MTT assay at 48 hours after peptide treatment
Protocol: (§3) FIGS. 13C-13D illustrate cell viability were measured by an MTT assay at 48 hours after the treatment of annotated peptide in SW480 cells with and without KO of dysadherin.
(§4) Cells were seeded in 6-well or 96-well plates and incubated for various time points. The numbers of viable cells were measured with an automated cell counter (Countess II, ThermoFisher Scientific, Waltham, MA, USA) or measured by staining with thiazolyl blue tetrazolium bromide (MTT, Sigma-Aldrich, St. Louis, MO, USA), and the absorbance was measured using a microplate spectrophotometer (Bio-Tek Instruments Inc., Winooski, VT, USA).

[6] = system: dysadherin KO SW480 cells; assay: Cell viability by MTT assay, dysadherin KO SW480 cells; assay type: cell-based, human; details: MTT assay at 48 hours after peptide treatment
Protocol: as §3
A dysadherin-KO (FXYD5^−/−) SW480 cell line was generated by Transomic Technologies (Huntsville, AL, USA). Specific gRNA targeting different regions of the human FXYD5 gene was designed and cloned into the pCLIPAll (EFS-Puro) expression vector. SW480 cells were infected with lentiviral particles and selected with puromycin for 1 week. Dilution cloning was performed to obtain different monoclonal cell populations. […] For establishment of the dysadherin-OE cell line, HCT116 cells were transfected with dysadherin expression vector (pcDNA-L3HSV) and selected with G418 for 1 week. Dilution cloning was performed and OE of the dysadherin gene was confirmed by RT-qPCR and immunoblot analysis. […]
as §4

fibronectin [7] = target: T2, fibronectin (Homo sapiens, UniProt P02751); assay: Pull-down assay of purified His-tagged dysadherin proteins with purified fibronectin protein; assay type: binding; details: purified His-tagged dysadherin proteins 1 μg, purified fibronectin 0.5 μg, anti-His antibody, immunoblot
T2 construct: purchased Sigma Aldrich
Excerpt: FIGS. […] illustrate the extracellular domain of dysadherin directly binds fibronectin. (FIG. 12A) Co-IP with anti-dysadherin antibody (M53) and subsequent immunoblot analyses validate the binding of dysadherin to endogenous fibronectin in CRC cells. (FIG. 12B) Co-IP with M53 and subsequent immunoblot analyses confirm that the quantity of dysadherin-bound fibronectin is decreased by dysadherin KO but increased by dysadherin OE. (FIG. 12C) Whole-protein lysates and membrane fractions were extracted from cells at the indicated time points. Culture media were collected and applied to dot blot assays to compare the quantities of secreted fibronectin. […]
The coding sequences of wild-type or mutant forms of dysadherin were synthesized and cloned into pET151/DTOPO vector by Thermo Fisher Scientific. […] The concentrated purified protein was measured using the BCA Protein Assay kit (Thermo Fisher Scientific). […] Presence of His-tagged dysadherin and fibronectin proteins were determined by immunoblot analysis using anti-His rabbit monoclonal antibody (#12698, Cell Signaling Technology) and anti-fibronectin rabbit polyclonal antibody (ab2413, Abcam, Cambridge, MA, USA). […] The purity of each peptide was determined to be over 95% by LC-MS. […] The presence of His-tagged dysadherin, dysadherin peptides, and fibronectin was determined by staining with Coomassie Brilliant Blue.

T1 sequence (Q05397 whole entry): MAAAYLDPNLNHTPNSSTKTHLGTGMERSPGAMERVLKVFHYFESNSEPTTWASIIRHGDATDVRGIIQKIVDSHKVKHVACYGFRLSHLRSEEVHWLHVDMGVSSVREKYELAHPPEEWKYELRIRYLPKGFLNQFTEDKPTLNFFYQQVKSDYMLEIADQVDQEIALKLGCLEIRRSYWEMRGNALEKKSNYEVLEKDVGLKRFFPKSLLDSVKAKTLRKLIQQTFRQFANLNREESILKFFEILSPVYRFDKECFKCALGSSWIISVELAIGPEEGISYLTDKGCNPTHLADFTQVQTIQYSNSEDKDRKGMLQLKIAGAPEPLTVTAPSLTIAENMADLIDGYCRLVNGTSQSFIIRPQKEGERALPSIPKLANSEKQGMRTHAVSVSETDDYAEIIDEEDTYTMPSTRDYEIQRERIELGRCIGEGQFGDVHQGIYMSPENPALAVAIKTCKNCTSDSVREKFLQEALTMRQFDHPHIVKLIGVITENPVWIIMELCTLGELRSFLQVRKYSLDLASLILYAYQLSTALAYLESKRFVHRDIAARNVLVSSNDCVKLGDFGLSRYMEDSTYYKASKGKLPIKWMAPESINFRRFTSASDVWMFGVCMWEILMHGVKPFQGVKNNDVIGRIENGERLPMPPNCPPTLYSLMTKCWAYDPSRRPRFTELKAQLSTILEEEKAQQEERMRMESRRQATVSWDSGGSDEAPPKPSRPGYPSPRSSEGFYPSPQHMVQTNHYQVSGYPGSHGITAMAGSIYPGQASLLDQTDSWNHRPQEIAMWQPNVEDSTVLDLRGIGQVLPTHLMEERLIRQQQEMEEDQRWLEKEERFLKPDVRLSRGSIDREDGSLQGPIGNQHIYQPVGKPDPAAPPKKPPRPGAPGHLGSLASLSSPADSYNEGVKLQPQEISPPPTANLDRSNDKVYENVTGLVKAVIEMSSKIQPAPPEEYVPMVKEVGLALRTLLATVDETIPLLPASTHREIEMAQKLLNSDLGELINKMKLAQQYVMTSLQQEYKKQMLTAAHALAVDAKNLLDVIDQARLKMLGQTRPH
T2 sequence (P02751 32-2477, species assumed): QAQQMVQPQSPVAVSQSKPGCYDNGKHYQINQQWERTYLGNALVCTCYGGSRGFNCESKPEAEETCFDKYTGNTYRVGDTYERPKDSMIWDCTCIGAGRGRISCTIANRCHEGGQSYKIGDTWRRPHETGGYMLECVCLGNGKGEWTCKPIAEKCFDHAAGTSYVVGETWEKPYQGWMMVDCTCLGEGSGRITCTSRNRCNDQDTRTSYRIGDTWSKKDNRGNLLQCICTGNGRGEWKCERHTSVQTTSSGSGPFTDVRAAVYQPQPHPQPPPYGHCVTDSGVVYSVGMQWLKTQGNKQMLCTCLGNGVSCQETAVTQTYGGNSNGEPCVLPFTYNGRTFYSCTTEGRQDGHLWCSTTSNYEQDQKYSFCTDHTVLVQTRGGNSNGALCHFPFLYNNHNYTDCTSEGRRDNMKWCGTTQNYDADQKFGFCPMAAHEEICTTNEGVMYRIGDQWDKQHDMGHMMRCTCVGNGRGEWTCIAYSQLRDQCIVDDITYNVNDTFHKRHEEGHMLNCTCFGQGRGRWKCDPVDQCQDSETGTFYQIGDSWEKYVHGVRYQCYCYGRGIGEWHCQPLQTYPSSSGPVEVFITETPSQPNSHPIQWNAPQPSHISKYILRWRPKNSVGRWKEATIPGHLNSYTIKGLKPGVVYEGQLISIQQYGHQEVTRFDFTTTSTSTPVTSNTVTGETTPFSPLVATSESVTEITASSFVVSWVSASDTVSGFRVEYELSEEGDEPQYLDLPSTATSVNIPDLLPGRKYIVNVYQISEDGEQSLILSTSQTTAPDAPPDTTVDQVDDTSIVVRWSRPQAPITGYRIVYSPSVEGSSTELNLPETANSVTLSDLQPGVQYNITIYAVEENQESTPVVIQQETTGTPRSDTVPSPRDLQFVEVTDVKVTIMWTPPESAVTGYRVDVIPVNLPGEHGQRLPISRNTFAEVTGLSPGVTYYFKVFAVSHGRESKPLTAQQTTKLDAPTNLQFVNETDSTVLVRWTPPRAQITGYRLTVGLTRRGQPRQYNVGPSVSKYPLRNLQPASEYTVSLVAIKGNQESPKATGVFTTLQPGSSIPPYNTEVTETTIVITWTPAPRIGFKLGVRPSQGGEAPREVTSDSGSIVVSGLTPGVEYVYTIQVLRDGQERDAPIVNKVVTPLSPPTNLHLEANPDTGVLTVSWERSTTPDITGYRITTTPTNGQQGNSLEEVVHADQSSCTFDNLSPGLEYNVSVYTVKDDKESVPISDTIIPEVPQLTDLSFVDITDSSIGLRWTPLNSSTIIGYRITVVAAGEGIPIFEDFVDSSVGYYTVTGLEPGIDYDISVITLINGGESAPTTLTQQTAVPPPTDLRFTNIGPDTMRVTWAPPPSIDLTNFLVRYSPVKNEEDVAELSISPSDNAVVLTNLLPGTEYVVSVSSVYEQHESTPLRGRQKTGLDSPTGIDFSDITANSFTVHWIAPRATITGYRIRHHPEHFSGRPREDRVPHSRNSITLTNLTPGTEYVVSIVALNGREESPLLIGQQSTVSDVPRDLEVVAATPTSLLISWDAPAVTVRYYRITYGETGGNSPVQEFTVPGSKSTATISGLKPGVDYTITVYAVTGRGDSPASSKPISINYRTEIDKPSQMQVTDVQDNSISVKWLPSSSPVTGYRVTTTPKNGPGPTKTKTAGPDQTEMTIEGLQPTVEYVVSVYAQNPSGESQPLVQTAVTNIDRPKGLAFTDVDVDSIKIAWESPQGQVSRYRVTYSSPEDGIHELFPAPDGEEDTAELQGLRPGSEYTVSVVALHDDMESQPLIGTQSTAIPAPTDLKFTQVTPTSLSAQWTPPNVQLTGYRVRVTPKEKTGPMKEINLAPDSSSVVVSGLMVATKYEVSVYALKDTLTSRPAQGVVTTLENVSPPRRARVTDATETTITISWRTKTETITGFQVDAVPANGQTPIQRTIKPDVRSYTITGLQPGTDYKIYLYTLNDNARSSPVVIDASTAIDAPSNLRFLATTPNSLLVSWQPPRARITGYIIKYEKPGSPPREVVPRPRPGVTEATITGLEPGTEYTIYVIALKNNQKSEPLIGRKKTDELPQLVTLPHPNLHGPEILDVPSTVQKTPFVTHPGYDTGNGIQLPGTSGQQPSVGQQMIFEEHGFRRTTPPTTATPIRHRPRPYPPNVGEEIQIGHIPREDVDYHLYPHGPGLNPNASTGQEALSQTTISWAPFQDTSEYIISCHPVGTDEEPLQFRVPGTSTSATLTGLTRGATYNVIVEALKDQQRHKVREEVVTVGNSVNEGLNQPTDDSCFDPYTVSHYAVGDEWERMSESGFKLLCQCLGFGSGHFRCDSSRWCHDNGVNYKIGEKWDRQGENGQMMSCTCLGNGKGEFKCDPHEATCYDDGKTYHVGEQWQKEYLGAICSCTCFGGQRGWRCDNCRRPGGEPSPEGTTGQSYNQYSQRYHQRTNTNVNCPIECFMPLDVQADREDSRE

CNC(=O)c1ccccc1Nc1cc(Nc2ccc(N3CCOCC3)cc2OC)ncc1C(F)(F)F [VS-4718]
fibronectin-induced FAK activation (FAK; cells on fibronectin-coated plates, VS-4718 at 1 or 3 μM, 4 h): inhibitory effects
basal p-FAK levels (FAK; treatment with VS-4718, FIG. 16C): diminished basal p-FAK levels
dysadherin-induced CRC growth [1]: diminished dysadherin-induced CRC growth
growth of wild-type HCT116 cells (wild-type HCT116 cells): attenuated the growth of wild-type HCT116 cells
dysadherin-induced increase in CRC survival (HCT116 cells [2]): attenuated
dysadherin-induced increase in CRC migration (HCT116 cells [3]): attenuated
dysadherin-induced increase in CRC invasion (HCT116 cells [4]): attenuated

PADETPQPQTQTQQLEGTDGP (listed as Homo sapiens) [N #3]
fibronectin-binding activity (fibronectin [5]): displayed fibronectin-binding activity
cytotoxicity against SW480 cells (SW480 cells): selective cytotoxicity
effect against dysadherin KO SW480 cells [6]: limited effect

KAAHPTDDTTTLSERPSPST (listed as Homo sapiens) [N #4]
fibronectin-binding activity (fibronectin [5]): displayed fibronectin-binding activity
cytotoxicity against SW480 cells (SW480 cells): selective cytotoxicity
effect against dysadherin KO SW480 cells [6]: limited effect

B1: dysadherin: purified recombinant His-tagged dysadherin protein, full-length (wild-type), from E. coli (protein)
chain: QTLKDTTSSSSADSTIMDIQVPTRAPDAVYTELQPTSPTPTWPADETPQPQTQTQQLEGTDGPLVTDPETHKSTKAAHPTDDTTTLSERPSPSTDVQTDPQTLKPSGFHEDDPFFYDEHTLRKRGLLVAAVLFITGIIILTSGKCRQLSRLCRNRCR
binding to fibronectin (fibronectin [7]): direct binding
